From the CombiSolv-Exp solvation set (Vermeire and Green 2021)
Values belong to the compound of their own block, whether it stands above or below them.

Assay: solvent given as SMILES
[1] = in CCCCCCCCC=CCCCCCCCC(=O)OCC(COC(=O)CCCCCCCC=CCCCCCCCC)OC(=O)CCCCCCCC=CCCCCCCCC

SMILES: CCOC(C)(C)C
solvation free energy, 298 K (in C1CCCCC1): -4.12 kcal/mol
solvation free energy, 298 K (in CC(=O)N(C)C): -3.53 kcal/mol
solvation free energy, 298 K (in CCCCCC): -4.07 kcal/mol
solvation free energy, 298 K (in CCCCCCC): -3.98 kcal/mol
solvation free energy, 298 K (in CCCCCCCCO): -3.67 kcal/mol
solvation free energy, 298 K (in CCCCN(C=O)CCCC): -3.6 kcal/mol
solvation free energy, 298 K (in CCN1CCCC1=O): -3.42 kcal/mol
solvation free energy, 298 K (in CCN(CC)C(C)=O): -3.66 kcal/mol
solvation free energy, 298 K (in CCNC(C)=O): -3.49 kcal/mol
solvation free energy, 298 K (in CCNC=O): -3.38 kcal/mol
solvation free energy, 298 K (in CCOCC): -4.22 kcal/mol
solvation free energy, 298 K (in CN1CCCCC1=O): -3.44 kcal/mol
solvation free energy, 298 K (in CN(C)C=O): -3.31 kcal/mol
solvation free energy, 298 K (in CNC(C)=O): -3.4 kcal/mol
solvation free energy, 298 K (in CNC=O): -3.21 kcal/mol
solvation free energy, 298 K (in CO): -4.07 kcal/mol
solvation free energy, 298 K (in O): -1.61 kcal/mol

SMILES: C1=CCCC=C1
solvation free energy, 298 K (in C1CCC2CCCCC2C1): -4.14 kcal/mol
solvation free energy, 298 K (in C1CCC(C2CCCCC2)CC1): -4.06 kcal/mol
solvation free energy, 298 K (in CN1CCCC1=O): -3.77 kcal/mol
solvation free energy, 298 K (in O): -0.26 kcal/mol
solvation free energy, 298 K (in c1ccc2c(c1)CCCC2): -4.31 kcal/mol
solvation free energy, 298 K (in c1ccc(C2CCCCC2)cc1): -4.19 kcal/mol

SMILES: CC(Cl)CCl (configuration not stated)
solvation free energy, 298 K (in CCCCCC): -4.17 kcal/mol
solvation free energy, 298 K (in CCCCCCCCO): -4.03 kcal/mol
solvation free energy, 298 K (in ClC(Cl)(Cl)Cl): -4.65 kcal/mol

SMILES: Cc1cc2ccccc2cc1C
solvation free energy, 298 K [1]: -8.95 kcal/mol
solvation free energy, 298 K (in O): -2.72 kcal/mol

SMILES: C1=CCC=CC1
solvation free energy, 298 K (in C1CCC2CCCCC2C1): -4.4 kcal/mol
solvation free energy, 298 K (in C1CCC(C2CCCCC2)CC1): -4.34 kcal/mol
solvation free energy, 298 K (in CCC(C)=O): -4.41 kcal/mol
solvation free energy, 298 K (in O): -0.67 kcal/mol
solvation free energy, 298 K (in c1ccc2c(c1)CCCC2): -4.58 kcal/mol
solvation free energy, 298 K (in c1ccc(C2CCCCC2)cc1): -4.49 kcal/mol

SMILES: O=C(O)CCCCCCc1ccccc1
solvation free energy, 298 K (in O): -8.72 kcal/mol

SMILES: Oc1c(Cl)c(Cl)c(Cl)c(Cl)c1Cl
solvation free energy, 298 K [1]: -10.3 kcal/mol
solvation free energy, 298 K (in O): -4.99 kcal/mol

SMILES: COc1ccc(CCN)cc1
solvation free energy, 298 K (in C=CCCCCCCC=C): -9.4 kcal/mol
solvation free energy, 298 K (in O): -8.51 kcal/mol

SMILES: CC(C)(C)Br
solvation free energy, 298 K (in Brc1ccccc1): -3.89 kcal/mol
solvation free energy, 298 K (in C1CCOC1): -3.87 kcal/mol
solvation free energy, 298 K (in C1COCCO1): -3.81 kcal/mol
solvation free energy, 298 K (in C=CCCCCCCCCCCCCCC): -3.56 kcal/mol
solvation free energy, 298 K (in CC(=O)N(C)C): -3.52 kcal/mol
solvation free energy, 298 K (in CC(C)(C)O): -3.36 kcal/mol
solvation free energy, 298 K (in CC(C)=O): -3.86 kcal/mol
solvation free energy, 298 K (in CC(C)O): -3.23 kcal/mol
solvation free energy, 298 K (in CCCCCC): -3.75 kcal/mol
solvation free energy, 298 K (in CCCCO): -3.3 kcal/mol
solvation free energy, 298 K (in CCCO): -3.19 kcal/mol
solvation free energy, 298 K (in CCOC(C)=O): -4.05 kcal/mol
solvation free energy, 298 K (in CCOCC): -3.85 kcal/mol
solvation free energy, 298 K (in CN1CCCC1=O): -3.44 kcal/mol
solvation free energy, 298 K (in CN(C)C=O): -3.59 kcal/mol
solvation free energy, 298 K (in ClC(Cl)(Cl)Cl): -4.13 kcal/mol
solvation free energy, 298 K (in ClCCCl): -4.02 kcal/mol
solvation free energy, 298 K (in Clc1ccccc1): -3.93 kcal/mol
solvation free energy, 298 K (in N#Cc1ccccc1): -3.64 kcal/mol
solvation free energy, 298 K (in O): 0.85 kcal/mol

SMILES: C1COCCOCCOCCOCCOC1
solvation free energy, 298 K (in Cc1cccc(C)c1): -11.4 kcal/mol
solvation free energy, 298 K (in O): -12.5 kcal/mol

SMILES: Brc1cc(Br)cc(Br)c1
solvation free energy, 298 K [1]: -8.73 kcal/mol
solvation free energy, 298 K (in O): -1.91 kcal/mol

SMILES: Clc1ccc(C(c2ccccc2Cl)C(Cl)(Cl)Cl)cc1 (configuration not stated)
solvation free energy, 298 K [1]: -13.8 kcal/mol
solvation free energy, 298 K (in O): -5.31 kcal/mol

SMILES: CCCCCCCCC=CCCCCCCCC(=O)OC
solvation free energy, 298 K (in O): -2.13 kcal/mol

SMILES: C=CC1(C)CCC(C(=C)C)CC1C(=C)C (configuration not stated)
solvation free energy, 298 K (in O): -0.42 kcal/mol

SMILES: Oc1ccc(Cl)c(Cl)c1
solvation free energy, 298 K (in O): -7.29 kcal/mol

SMILES: Clc1ccc(Cl)c(-c2cc(Cl)c(Cl)cc2Cl)c1
solvation free energy, 298 K (in CCCCCCCCO): -12 kcal/mol
solvation free energy, 298 K (in O): -2.82 kcal/mol

SMILES: CCOP(=S)(OCC)SCSCC
solvation free energy, 298 K (in O): -4.37 kcal/mol

SMILES: Clc1cccc(Cl)c1-c1c(Cl)cccc1Cl
solvation free energy, 298 K (in O): -2.17 kcal/mol

SMILES: ClC(Cl)C(Cl)Cl
solvation free energy, 298 K (in CC(C)=O): -6.28 kcal/mol
solvation free energy, 298 K (in CCCCCCCCCCCCCCCC): -5.21 kcal/mol
solvation free energy, 298 K (in CCCCCCCCO): -5.84 kcal/mol
solvation free energy, 298 K (in ClC(Cl)(Cl)Cl): -5.93 kcal/mol
solvation free energy, 298 K (in ClCCCl): -6.37 kcal/mol
solvation free energy, 298 K (in O): -2.45 kcal/mol
solvation free energy, 298 K (in [2H]O[2H]): -2.59 kcal/mol

SMILES: CC(C)c1ccc2c(c1)CCC1C(C)(C)CCCC21C (configuration not stated)
solvation free energy, 298 K (in O): -0.37 kcal/mol

SMILES: C#CCCCC
solvation free energy, 298 K (in C1CCC2CCCCC2C1): -3.68 kcal/mol
solvation free energy, 298 K (in C1CCC(C2CCCCC2)CC1): -3.65 kcal/mol
solvation free energy, 298 K (in CN1CCCC1=O): -4.11 kcal/mol
solvation free energy, 298 K (in CN(C)C=O): -3.94 kcal/mol
solvation free energy, 298 K (in CS(C)=O): -3.55 kcal/mol
solvation free energy, 298 K (in N#CCCCCC#N): -3.32 kcal/mol
solvation free energy, 298 K (in NCCO): -2.4 kcal/mol
solvation free energy, 298 K (in O): 0.29 kcal/mol
solvation free energy, 298 K (in O=Cc1ccco1): -3.57 kcal/mol
solvation free energy, 298 K (in OCc1ccco1): -3.31 kcal/mol
solvation free energy, 298 K (in c1ccc2c(c1)CCCC2): -3.99 kcal/mol
solvation free energy, 298 K (in c1ccc(C2CCCCC2)cc1): -3.88 kcal/mol

SMILES: CC=CCCC
solvation free energy, 298 K (in NC=O): -1.06 kcal/mol
solvation free energy, 298 K (in OCCO): -1.25 kcal/mol
solvation free energy, 298 K (in OCCOCCO): -1.92 kcal/mol
solvation free energy, 298 K (in OCCOCCOCCO): -2.02 kcal/mol

SMILES: Cc1cccc(C(=O)O)c1
solvation free energy, 298 K (in C1CCOC1): -10.5 kcal/mol
solvation free energy, 298 K (in C1COCCO1): -10.1 kcal/mol
solvation free energy, 298 K (in CC(C)(C)O): -10.2 kcal/mol
solvation free energy, 298 K (in CC(C)CC(C)O): -10 kcal/mol
solvation free energy, 298 K (in CC(C)CCO): -9.93 kcal/mol
solvation free energy, 298 K (in CC(C)CO): -9.91 kcal/mol
solvation free energy, 298 K (in CC(C)O): -10.1 kcal/mol
solvation free energy, 298 K (in CC(C)OCCO): -10.1 kcal/mol
solvation free energy, 298 K (in CC(O)COC(C)(C)C): -9.97 kcal/mol
solvation free energy, 298 K (in CCC(C)CO): -9.88 kcal/mol
solvation free energy, 298 K (in CCC(C)O): -10.1 kcal/mol
solvation free energy, 298 K (in CCCC(C)CO): -9.89 kcal/mol
solvation free energy, 298 K (in CCCC(C)O): -10 kcal/mol
solvation free energy, 298 K (in CCCCCCCCCCO): -9.65 kcal/mol
solvation free energy, 298 K (in CCCCCCCCO): -9.87 kcal/mol
solvation free energy, 298 K (in CCCCCCCO): -9.91 kcal/mol
solvation free energy, 298 K (in CCCCCCO): -9.94 kcal/mol
solvation free energy, 298 K (in CCCCCO): -9.99 kcal/mol
solvation free energy, 298 K (in CCCCO): -10 kcal/mol
solvation free energy, 298 K (in CCCCOC(C)=O): -9.69 kcal/mol
solvation free energy, 298 K (in CCCCOCCO): -10 kcal/mol
solvation free energy, 298 K (in CCCO): -10.3 kcal/mol
solvation free energy, 298 K (in CCCOCCO): -10.1 kcal/mol
solvation free energy, 298 K (in CCO): -10.2 kcal/mol
solvation free energy, 298 K (in CCOC(C)=O): -9.9 kcal/mol
solvation free energy, 298 K (in CCOCC): -10 kcal/mol
solvation free energy, 298 K (in CCOCCO): -10.1 kcal/mol
solvation free energy, 298 K (in CO): -10.3 kcal/mol
solvation free energy, 298 K (in COC(C)=O): -9.99 kcal/mol
solvation free energy, 298 K (in COC(C)CCO): -10.1 kcal/mol
solvation free energy, 298 K (in O): -6.79 kcal/mol

SMILES: CCOC=O
solvation free energy, 298 K (in C=CCCCCCCCCCCCCCC): -2.62 kcal/mol
solvation free energy, 298 K (in CC(C)O): -3.15 kcal/mol
solvation free energy, 298 K (in CCC(C)=O): -3.71 kcal/mol
solvation free energy, 298 K (in CCCCCCCCCCCCCCCC): -2.55 kcal/mol
solvation free energy, 298 K (in CCCCCCCCO): -2.98 kcal/mol
solvation free energy, 298 K (in ClC(Cl)(Cl)Cl): -3.33 kcal/mol
solvation free energy, 298 K (in ClC(Cl)Cl): -4.37 kcal/mol
solvation free energy, 298 K (in O): -2.64 kcal/mol
solvation free energy, 298 K (in [2H]O[2H]): -2.64 kcal/mol

Second part, the compound after the results:

solvation free energy, 298 K (in CCCCOCCCC): -12.4 kcal/mol
solvation free energy, 298 K (in O): -2.92 kcal/mol
SMILES: CCCCCCCCCCCCCCCO

solvation free energy, 298 K (in O): -17.7 kcal/mol
SMILES: Cc1nc(NS(=O)(=O)c2ccc(N)cc2)oc1C

solvation free energy, 298 K (in O): -8.72 kcal/mol
SMILES: CCCCOC(=O)c1ccc(O)cc1

solvation free energy, 298 K (in O): 0.05 kcal/mol
SMILES: C=C1CC=C(C(C)C)CC1

solvation free energy, 298 K (in CCCCCCCC): -5.33 kcal/mol
solvation free energy, 298 K (in CCCCCCCCCC): -5.22 kcal/mol
SMILES: CC(C)CCC(C)O (configuration not stated)

solvation free energy, 298 K (in O): -10.2 kcal/mol
SMILES: Nc1cc([N+](=O)[O-])cc(Cl)c1O

solvation free energy, 298 K (in COC(C)(C)C): -4.8 kcal/mol
solvation free energy, 298 K (in O): -3.88 kcal/mol
SMILES: CN1CCCCC1

solvation free energy, 298 K (in O): -3.3 kcal/mol
SMILES: COC(=O)C1CCCCC1

solvation free energy, 298 K (in O): -3.25 kcal/mol
SMILES: CC(=O)OC1(C(C)C)CC=C(C)CC1 (configuration not stated)

solvation free energy, 298 K (in O): -6.08 kcal/mol
SMILES: CC(=O)CC(=O)c1cccs1

solvation free energy, 298 K (in CN(C)C=O): -11.6 kcal/mol
solvation free energy, 298 K (in O): -6.89 kcal/mol
SMILES: COC(=O)c1ccc(Cl)c([N+](=O)[O-])c1

solvation free energy, 298 K (in C=CCCCCCCCCCCCCCC): -3.23 kcal/mol
solvation free energy, 298 K (in O): 1.9 kcal/mol
SMILES: C=CCC(C)C

solvation free energy, 298 K (in O): -5.71 kcal/mol
SMILES: CCOC(=O)CCC(=O)OCC

solvation free energy, 298 K (in O): -4.86 kcal/mol
SMILES: Cc1ccnc(C)c1

solvation free energy, 298 K (in O): -2.53 kcal/mol
SMILES: CC1CCC(C(C)C)C(=O)C1 (configuration not stated)

solvation free energy, 298 K (in O): -9.52 kcal/mol
SMILES: O=Cc1cccc(O)c1
